Experimental findings from US12508261B2, “Methods of treating depression with vortioxetine” (Rundle Research LLC, priority 2017, dated 2025) are described below.

This data set in a line: Clinical pharmacokinetic study (RUN-001): vortioxetine 5 mg once daily for 29 days, then 28 days washout, obese vs normal-weight subjects. Type of data set: in vivo, human. The note with it: both, human, in vivo. As to the method:
To test if the obese patients would require different washout guidelines for preventing serotonin syndrome, 16 obese subjects (BMI≥35) and 13 normal subjects (BMI<25) completed a clinical trial where they were administered daily with low doses (5 mg/day) of vortioxetine for 29 days in a controlled study. All subjects were subsequently tracked for 28 days after discontinuing vortioxetine on day 29. Blood samples were collected and processed according to standard techniques.
The normal-weight control group consisted of healthy male and female volunteers aged 18 to 45 years. Their body mass index (BMI) values fell in the range of […]. […] Normal weight and obese subjects were matched as closely as possible for gender and age.
CYP2D6 genotype status was determined from whole blood samples drawn from each subject. Known alleles of CYP2D6 were tested for, as well as the presence of gene duplications (LabCorp, Inc.). CYP2D6 metabolizer status was categorized as ultra-rapid, extensive, intermediate, or poor. Ultra-rapid and poor metabolizers were not included in the study.
All subjects received vortioxetine, 5 mg once daily in the morning, for 29 days. The first dose was on Day 1, and the last dose was on Day 29. Blood sampling continued for another 28 days after the last dose, through Day 57.
Subjects spent 12 hours in the study unit on Day 1 (first dose of vortioxetine) and Day 29 (last dose of vortioxetine). On those two study days, venous blood samples (7 mL each) were drawn prior to the dose of vortioxetine, and at 1, 2, 4, 6, 8, 10, and 12 hours after dosage.
During the 29-day period of daily vortioxetine administration, subjects returned to the study unit in the morning of the following study days: 2, 3, 5, 8, 10, 12, 15, 17, 19, 22, 24, 26, and 29. At each visit, a single venous blood sample (7 mL) was drawn before the daily dose of vortioxetine. Subjects underwent a brief interview to assess subjective effects and possible adverse events. Subjects were then discharged until the next scheduled visit. They were provided with vortioxetine doses sufficient for daily morning administration until the next visit. No more than 2 consecutive doses of vortioxetine were taken on an outpatient basis.
On Day 29 (the final dose of vortioxetine), subjects spent 12 hours in the study unit as described above. They returned to the study unit for a single blood sample on the mornings of the following Days: 30, 31, 33, 36, 38, 40, 43, 45, 47, 50, 52, 54, and 57.
Plasma concentrations of vortioxetine were determined by liquid chromatography—mass spectrometry using a Shimadzu HPLC system coupled to a Sciex API-4000 mass spectrometer.
The internal standard (vortioxetine-d8) was added to calibration standards, quality control samples, and unknown study samples. All samples were extracted with methyl tert-butyl ether. The organic phase was separated and evaporated to dryness; the reconstituted extract was injected into the HPLC system. The HPLC column was a Unison UK-C18, 50 mm×2 mm, 3 micron particle size. The mobile phase consisted of an organic component (0.1% formic acid in acetonitrile) and an aqueous component (0.1% formic acid and 2 mM ammonium acetate in water). This was delivered in gradient mode at a net flow rate of 0.4 mL/min, with the organic fraction varying from 40% to 96%. m/z monitored were: 299.1/150.1 for vortioxetine, and 307.1/153 for vortioxetine-d8. The limit of quantitation was 0.1 ng/mL. […] All samples from a given study subject were extracted and analyzed at the same time using the same calibration standards.
Based on the clinical trials discussed above, several equations were derived which allow an individual to calculate the washout period (i.e., the time between stopping vortioxetine and initiating treatment with an MAOI). Data points to consisted of pre-dose plasma vortioxetine concentration (C) on each study day (t), both during (Days 1-29) and after (Days 30-57) the period of vortioxetine administration. […]

Each structure is given as a SMILES string.

`CC[C@@H]([C@H](C)O)n1ncn(-c2ccc(N3CCN(c4ccc(OC[C@@H]5CO[C@@](Cn6cncn6)(c6ccc(F)cc6F)C5)cc4)CC3)cc2)c1=O` [posaconazole] displayed an elimination half-life of 78.2 h.
